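Where inhibition never reached the appropriate level, the endpoint shown equals the highest concentration tested. Otherwise, values were interpolated linearly from a five-concentration, 48-hour dose response in 96-well plates. Definition used: TGI = concentration required for complete inhibition of growth.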
Columns and labels:
Assay in all cases: growth of human tumour cells (NCI), 48 h
[1] = system: SK-MEL-28 melanoma
[2] = system: SK-MEL-5 melanoma
[3] = system: SF-539 CNS
[4] = system: SK-MEL-2 melanoma
[5] = system: HL-60(TB) leukemia
[6] = system: SNB-78 CNS
[7] = system: HCC-2998 colon
[8] = system: HOP-92 NSCLC
[9] = system: OVCAR-5 ovarian
[10] = system: K-562 leukemia
[11] = system: SNB-75 CNS
[12] = system: 786-0 renal
[13] = system: SK-OV-3 ovarian
[14] = system: NCI-H226 lung
[15] = system: SW-620 colon
[16] = system: A498 renal
[17] = system: SF-268 CNS
[18] = system: OVCAR-4 ovarian
[19] = system: NCI-H23 lung
[20] = system: DMS 114 small cell lung
[21] = system: RXF 393 renal
[22] = system: HT29 colon
[23] = system: M14 melanoma
[24] = system: UACC-62 melanoma
[25] = system: U251 CNS
[26] = system: NCI-H522 lung
[27] = system: KM12 colon
[28] = system: MALME-3M melanoma
[29] = system: CCRF-CEM leukemia
[30] = system: IGROV1 ovarian
[31] = system: UACC-257 melanoma
[32] = system: SN12C renal
[33] = system: LOX IMVI melanoma
[34] = system: HCT-116 colon
[35] = system: KM20L2 colon
[36] = system: ACHN renal
[37] = system: UO-31 renal
[38] = system: NCI-H460 lung
[39] = system: COLO 205 colon
[40] = system: CAKI-1 renal
[41] = system: OVCAR-3 ovarian
[42] = system: RPMI-8226 leukemia
[43] = system: DLD-1 colon
[44] = system: OVCAR-8 ovarian
[45] = system: LXFL 529 NSCLC
[46] = system: EKVX NSCLC
[47] = system: A549 NSCLC
[48] = system: DMS 273 small cell lung
[49] = system: HOP-62 NSCLC
[50] = system: MOLT-4 leukemia
[51] = system: TK-10 renal
[52] = system: SNB-19 CNS
[53] = system: SF-295 CNS
[54] = system: HCT-15 colon
[55] = system: M19-MEL melanoma
[56] = system: SR leukemia
[57] = system: HOP-18 NSCLC

Structure (SMILES): CCOc1ccc(-c2oc(/C=N/NS(=O)(=O)c3ccc(C)cc3)c([N+](=O)[O-])c2-c2ccc(OCC)cc2)cc1
- TGI [1]: 28.3 µM
- TGI [2]: 21.2 µM
- TGI [3]: 30.7 µM
- TGI [4]: 44.8 µM
- TGI [5]: > 52.9 µM
- TGI [6]: 34.6 µM
- TGI [7]: 31.1 µM
- TGI [8]: 31.5 µM
- TGI [9]: 24.1 µM
- TGI [10]: > 56.3 µM
- TGI [11]: 35.2 µM
- TGI [12]: 29.7 µM
- TGI [13]: 42.7 µM
- TGI [14]: 28.4 µM
- TGI [15]: 7.76 µM
- TGI [16]: 41.4 µM
- TGI [17]: 50.5 µM
- TGI [18]: 25.4 µM
- TGI [19]: 31.4 µM
- TGI [20]: 12 µM
- TGI [21]: 29.3 µM
- TGI [22]: 20.7 µM
- TGI [23]: 27.7 µM
- TGI [24]: 26 µM
- TGI [25]: 21.2 µM
- TGI [26]: 20.6 µM
- TGI [27]: 25.3 µM
- TGI [28]: 37.1 µM
- TGI [29]: 8.04 µM
- TGI [30]: 32.3 µM
- TGI [31]: 45 µM
- TGI [32]: 27.5 µM
- TGI [33]: 12.6 µM
- TGI [34]: 3.92 µM
- TGI [35]: 31.9 µM
- TGI [36]: 23.7 µM
- TGI [37]: 28.7 µM
- TGI [38]: 29.7 µM
- TGI [39]: 37.2 µM
- TGI [40]: 43.1 µM
- TGI [41]: 43.3 µM
- TGI [42]: 5.12 µM
- TGI [43]: 17.6 µM
- TGI [44]: 50 µM
- TGI [45]: 26.6 µM
- TGI [46]: 80 µM
- TGI [47]: 65.6 µM
- TGI [48]: 23 µM
- TGI [49]: > 64.3 µM
- TGI [50]: > 24.8 µM
- TGI [51]: 70.3 µM
- TGI [52]: 43.1 µM
- TGI [53]: 38.4 µM
- TGI [54]: 18.4 µM
- TGI [55]: 13.3 µM

Structure (SMILES): O=C(OCc1ccccc1C1CSCSC1)c1cc(C(=O)OCc2ccccc2C2CSCSC2)c(C(=O)OCc2ccccc2C2CSCSC2)cc1C(=O)OCc1ccccc1C1CSCSC1
- TGI [1]: > 100 µM
- TGI [2]: > 100 µM
- TGI [3]: > 100 µM
- TGI [4]: > 100 µM
- TGI [5]: > 100 µM
- TGI [6]: > 100 µM
- TGI [8]: > 100 µM
- TGI [9]: > 100 µM
- TGI [10]: > 100 µM
- TGI [11]: > 100 µM
- TGI [12]: > 100 µM
- TGI [13]: > 100 µM
- TGI [14]: > 100 µM
- TGI [15]: > 100 µM
- TGI [16]: > 100 µM
- TGI [17]: > 100 µM
- TGI [18]: > 100 µM
- TGI [19]: > 100 µM
- TGI [20]: > 100 µM
- TGI [21]: > 100 µM
- TGI [22]: > 100 µM
- TGI [23]: > 100 µM
- TGI [24]: > 100 µM
- TGI [25]: > 100 µM
- TGI [26]: > 100 µM
- TGI [27]: > 100 µM
- TGI [28]: > 100 µM
- TGI [29]: > 100 µM
- TGI [30]: > 100 µM
- TGI [31]: > 100 µM
- TGI [32]: > 100 µM
- TGI [33]: > 100 µM
- TGI [34]: > 100 µM
- TGI [35]: > 100 µM
- TGI [56]: > 100 µM
- TGI [36]: > 100 µM
- TGI [37]: > 100 µM
- TGI [38]: > 100 µM
- TGI [39]: > 100 µM
- TGI [40]: > 100 µM
- TGI [41]: > 100 µM
- TGI [42]: > 100 µM
- TGI [43]: > 100 µM
- TGI [44]: > 100 µM
- TGI [45]: > 100 µM
- TGI [47]: > 100 µM
- TGI [57]: > 100 µM
- TGI [48]: > 100 µM
- TGI [49]: > 100 µM
- TGI [50]: > 100 µM
- TGI [51]: > 100 µM
- TGI [53]: > 100 µM
- TGI [54]: > 100 µM
- TGI [55]: > 100 µM

Source: PubChem BioAssay (NCI)
